{"source": "patent US12497371B2", "about": "“DRP-1 inhibitors as therapeutic agents” (The Florida International University Board of Trustees, priority 2023, dated 2025)", "key": {"[1]": {"system": "eNAMPT-mediated mitochondrial fission", "assay": "eNAMPT-mediated mitochondrial fission", "assay_type": "cell-based", "settings": "FIG. 5A", "description": "(§1) FIGS. 5A-5C show the validation of novel Drp1 inhibitors as therapeutics against VILI. Three novel Drp1 inhibitors identified in the Drp1 GTPase assay were tested for their ability to attenuate eNAMPT-mediated mitochondrial fission (5A). One of the compounds CTS2444-32 was further tested in mice exposed to high tidal mechanical ventilation (40 mL/kg, PEEP=5 cm H2O, BR=75 bpm, 4 h). […] Values are mean±SEM, n=4. *P<0.05 vs. spontaneously breathing control, †P<0.05 vs. DMSO+VILI.\nThree lead compounds (FIG. 4) were selected for further testing. These compounds are referred to as CTS (Center for Translational Science) 2444-19, CTS2444-20, and CTS2444-32. These compounds were examined for their ability to prevent eNAMPT-mediated mitochondrial fission."}, "LUHMES cells": {"system": "LUHMES cells", "assay": "α-synuclein PFF aggregation in LUHMES cells (pS129 immunostaining)", "assay_type": "cell-based, human", "settings": "PFF 24 h, then 20 μM compound for 48 h", "description": "To determine the therapeutic potential of compound 2444-32 against α-synuclein, human dopaminergic neuronal cells (LUHMES cells) were treated with human α-synuclein pre-formed fibrils (PFF). After 24 h incubation, cell culture media containing PFF was removed and replaced with fresh media containing 20 μM of compound 2444-32 or vehicle control. Cells were incubated for a further 48 h before having media removed and processed for immunostaining for pS129 α-synuclein, a pathogenic form of α-synuclein. α-synuclein protein aggregates were then quantified using the IMARIS (Oxford instruments) software."}, "[2]": {"system": "ventilator-induced lung injury (VILI)", "assay": "VILI model: mice exposed to high tidal mechanical ventilation", "assay_type": "in vivo", "settings": "10 mg/kg, i.p., 2 h", "description": "as §1\nCTS2444-32 (10 mg/kg, i.p., 2 h) attenuated the VILI-mediated increase in the levels of TNFα (6A), IL-6 (6B), IL-18 (6C), GROα, (6D), MIP-1α (6E), MIP-1β(6F), MCP-1 (6G), MCP-3 (6H), and IL-12p70 (6I) in the BALF. Values are mean±SEM, n=4. *P<0.05 vs. spontaneously beathing control, †P<0.05 vs. DMSO+VILI.\nTo validate Drp1 as a therapeutic target, four preclinical VILI/ARDS models are used: i) VILI; ii) a “two-hit” model of polymicrobial sepsis (cecal ligation and puncture, CLP) in addition to mechanical ventilation; iii) a “two-hit” COV19-pneumonia model consisting of the delivery of the COVID19 spike protein combined with mechanical ventilation and iv) the ARDS-like extended lung inflammation model in which the mice are exposed long-term to LPS. Therapeutic agents are given before the initiation of injury in the VILI-only model or at the beginning of mechanical ventilation in the “two-hit” models, or 4 d after LPS exposure in the extended lung inflammation model to mimic the situation of a critically ill patient in the ICU."}, "mouse primary microglia": {"system": "mouse primary microglia", "assay": "Paraquat-treated primary microglia, qPCR of inflammatory mRNA", "assay_type": "cell-based", "settings": "6 h", "description": "Microglia cells were treated with paraquat (PQ) in the presence or absence of compound 2444-32. The mRNA levels of IL-1β and RelA were analyzed. Microglia isolated from Drp1+/− pups was used as a positive control.\nNeuroinflammation is commonly observed in Parkinson's disease (PD) and other neurodegenerative diseases. The role of activated microglia in causing neuroinflammation by upregulating the levels of pro-inflammatory cytokines such as IL-1β and relA is implicated in PD. The protective effects of one lead compound (2444-32) was evaluated using mouse primary microglia isolated from newborn pups. As shown in the FIG. 7, these cells were treated for with paraquat (PQ), a herbicide that has been linked to increasing the risk of developing PD, in the presence or absence of compound 2444-32. After 6 h, RNA was isolated for qPCR analysis. There was a dramatic increase in the levels of IL-1β and RelA mRNA. […] As a positive control model for a partial loss of Drp1 function, microglia isolated from Drp1+/− pups was used, which express approximately 50% of Drp1 as compared to their wild-type littermates. Significant reduction in neuroinflammation was also detected in these mutant microglia treated with PQ, indicating the protective effects of 2444-32 was most likely mediated through reduced Drp1 function, not off-target effects."}, "lung cancer tumor": {"system": "lung cancer tumor", "settings": "xenograft mouse model; background statement; cited from earlier work"}, "cell proliferation": {"system": "cell proliferation", "settings": "background statement; cited from earlier work"}, "[3]": {"system": "cardiac ischemia-reperfusion injury", "settings": "background statement; cited from earlier work"}, "dynamin 1": {"biological_target": "T1, dynamin 1 (Homo sapiens, UniProt Q05193)", "T1 sequence (Q05193 1-864)": "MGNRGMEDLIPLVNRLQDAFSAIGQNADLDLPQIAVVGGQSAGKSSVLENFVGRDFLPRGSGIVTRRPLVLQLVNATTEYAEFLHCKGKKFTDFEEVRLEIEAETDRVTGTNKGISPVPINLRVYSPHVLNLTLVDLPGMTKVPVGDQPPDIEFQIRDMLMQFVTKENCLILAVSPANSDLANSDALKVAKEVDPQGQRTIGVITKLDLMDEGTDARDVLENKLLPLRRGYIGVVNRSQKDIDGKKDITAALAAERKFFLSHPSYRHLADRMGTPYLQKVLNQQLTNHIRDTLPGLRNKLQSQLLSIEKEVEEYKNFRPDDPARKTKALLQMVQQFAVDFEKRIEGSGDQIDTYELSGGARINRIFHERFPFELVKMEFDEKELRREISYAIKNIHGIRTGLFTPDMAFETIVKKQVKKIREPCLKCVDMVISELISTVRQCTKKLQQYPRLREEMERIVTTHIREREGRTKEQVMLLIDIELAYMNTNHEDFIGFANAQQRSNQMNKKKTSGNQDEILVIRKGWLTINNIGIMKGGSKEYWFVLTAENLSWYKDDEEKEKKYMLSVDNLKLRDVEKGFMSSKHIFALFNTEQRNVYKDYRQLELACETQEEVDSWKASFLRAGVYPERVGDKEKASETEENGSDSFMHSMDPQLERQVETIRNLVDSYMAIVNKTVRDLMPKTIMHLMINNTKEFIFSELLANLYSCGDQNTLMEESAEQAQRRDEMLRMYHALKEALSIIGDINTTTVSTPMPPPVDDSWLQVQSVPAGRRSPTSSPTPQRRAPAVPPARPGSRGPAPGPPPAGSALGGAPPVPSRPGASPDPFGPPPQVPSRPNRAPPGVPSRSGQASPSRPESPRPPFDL", "settings": "background statement; cited from earlier work"}, "dynamin 2": {"biological_target": "T2, dynamin 2 (Homo sapiens, UniProt P50570)", "T2 sequence (P50570 1-870)": "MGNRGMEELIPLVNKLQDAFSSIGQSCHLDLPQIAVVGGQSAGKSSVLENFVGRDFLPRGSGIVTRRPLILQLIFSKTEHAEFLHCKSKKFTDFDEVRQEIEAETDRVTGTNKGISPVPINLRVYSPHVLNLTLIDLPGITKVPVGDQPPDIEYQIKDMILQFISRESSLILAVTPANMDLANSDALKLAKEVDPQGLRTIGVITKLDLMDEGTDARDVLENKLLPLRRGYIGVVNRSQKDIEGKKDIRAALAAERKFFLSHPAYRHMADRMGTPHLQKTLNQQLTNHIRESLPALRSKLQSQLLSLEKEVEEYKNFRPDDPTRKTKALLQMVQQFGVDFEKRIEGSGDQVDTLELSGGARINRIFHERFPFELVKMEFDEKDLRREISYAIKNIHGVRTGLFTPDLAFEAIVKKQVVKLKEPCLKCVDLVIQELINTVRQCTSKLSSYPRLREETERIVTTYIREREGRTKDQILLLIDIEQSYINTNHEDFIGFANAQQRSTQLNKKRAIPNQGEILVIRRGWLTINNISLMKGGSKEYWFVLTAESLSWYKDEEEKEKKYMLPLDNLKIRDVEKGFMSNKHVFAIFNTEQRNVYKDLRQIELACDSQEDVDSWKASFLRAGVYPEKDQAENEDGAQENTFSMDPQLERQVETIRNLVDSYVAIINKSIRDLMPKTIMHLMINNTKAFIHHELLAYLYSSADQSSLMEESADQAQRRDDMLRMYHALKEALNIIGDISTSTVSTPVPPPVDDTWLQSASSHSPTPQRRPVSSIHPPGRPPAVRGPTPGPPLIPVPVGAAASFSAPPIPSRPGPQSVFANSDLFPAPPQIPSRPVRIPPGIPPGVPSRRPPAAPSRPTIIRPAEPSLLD", "settings": "background statement; cited from earlier work"}, "lung EC": {"system": "lung EC", "assay": "LPS (TLR4)-dependent mitochondrial fission in lung EC", "assay_type": "cell-based", "settings": "LPS 2 EU/ml, 4 h; FIG. 1C", "description": "TLR^4 ligation with LPS (2 EU/ml, 4 h) also increases mitochondrial fission and this is blocked by the putative Drp1 inhibitor, mdivi-1 (1C). Data are mean±SEM. N=3-10. P<0.05 vs. control.\nUsing immunofluorescence microscopy, increased mitochondrial localization of Drp1 was observed (FIG. 1B)."}, "Drp1 GTPase": {"system": "Drp1 GTPase", "settings": "background statement; cited from earlier work"}, "complex I": {"system": "complex I", "settings": "background statement; cited from earlier work"}}, "data": [{"smiles": "O=C(Cc1ccc(Cl)c(Cl)c1)N1CCN(Cc2csc(NCC3(c4ccccc4)CC3)n2)CC1", "note": "[Compound 2444-19]", "values": [{"measurement": "increase in fission induced by eNAMPT", "setting": "[1]", "result": "not"}]}, {"smiles": "CCCCNc1nc(CN2CCN(C(=O)CC3CC4CCC3C4)CC2)cs1", "note": "(centres unmarked) [Compound 2444-20]", "values": [{"measurement": "increase in fission induced by eNAMPT", "setting": "[1]", "result": "prevent the increase in fission induced by eNAMPT"}]}, {"smiles": "O=C(CC1CC2CCC1C2)N1CCN(Cc2csc(NCC3CCC3)n2)CC1", "note": "(centres unmarked) [Compound 2444-32]", "values": [{"measurement": "α-synuclein aggregation (puncta)", "setting": "LUHMES cells", "result": "significantly reduced"}, {"measurement": "VILI-mediated increase in TNFα in BALF", "setting": "[2]; FIG. 6A", "result": "attenuated"}, {"measurement": "VILI-mediated increase in IL-6 in BALF", "setting": "[2]; FIG. 6B", "result": "attenuated"}, {"measurement": "VILI-mediated increase in IL-18 in BALF", "setting": "[2]; FIG. 6C", "result": "attenuated"}, {"measurement": "VILI-mediated increase in GROα in BALF", "setting": "[2]; FIG. 6D", "result": "attenuated"}, {"measurement": "VILI-mediated increase in MIP-1α in BALF", "setting": "[2]; FIG. 6E", "result": "attenuated"}, {"measurement": "VILI-mediated increase in MIP-1β in BALF", "setting": "[2]; FIG. 6F", "result": "attenuated"}, {"measurement": "VILI-mediated increase in MCP-1 in BALF", "setting": "[2]; FIG. 6G", "result": "attenuated"}, {"measurement": "VILI-mediated increase in MCP-3 in BALF", "setting": "[2]; FIG. 6H", "result": "attenuated"}, {"measurement": "VILI-mediated increase in IL-12p70 in BALF", "setting": "[2]; FIG. 6I", "result": "attenuated"}, {"measurement": "total cell counts in bronchoalveolar lavage (BAL) fluid", "setting": "[2]; high tidal ventilation 40 mL/kg, 4 h, FIG. 5B", "result": "decreases"}, {"measurement": "protein in bronchoalveolar lavage (BAL) fluid", "setting": "[2]; high tidal ventilation 40 mL/kg, 4 h, FIG. 5C", "result": "decreases"}, {"measurement": "lung injury", "setting": "[2]; mice exposed to VILI", "result": "decreases lung injury"}, {"measurement": "increase in fission induced by eNAMPT", "setting": "[1]", "result": "prevent the increase in fission induced by eNAMPT"}, {"measurement": "paraquat-induced increase in IL-1β mRNA", "setting": "mouse primary microglia", "result": "significantly attenuated"}, {"measurement": "paraquat-induced increase in RelA mRNA", "setting": "mouse primary microglia", "result": "significantly attenuated"}]}, {"smiles": "O=C1c2ccncc2C(=O)c2c1[nH]c1ccccc21", "note": "[Drpitor1a]", "values": [{"measurement": "lung cancer tumor growth", "setting": "lung cancer tumor", "result": "suppress lung cancer tumor growth"}, {"measurement": "cell proliferation", "setting": "cell proliferation", "result": "reduce cell proliferation"}, {"measurement": "protection against cardiac ischemia-reperfusion injury", "setting": "[3]", "result": "protect against cardiac ischemia-reperfusion injury"}]}, {"smiles": "O=C(N/N=C/c1ccc(O)c(O)c1)c1cc2ccccc2cc1O", "note": "[Dynasore]", "values": [{"measurement": "inhibition of dynamin 1", "setting": "dynamin 1", "result": "blocks"}, {"measurement": "inhibition of dynamin 2", "setting": "dynamin 2", "result": "blocks"}]}, {"smiles": "COc1cc(-n2c(=S)[nH]c3ccccc3c2=O)c(Cl)cc1Cl", "note": "[mdivi-1]", "values": [{"measurement": "TLR4-dependent mitochondrial fission", "setting": "lung EC", "result": "decreases TLR4-dependent mitochondrial fission"}, {"measurement": "inhibition of Drp1 GTPase activity", "setting": "Drp1 GTPase", "result": "weak and non-specific inhibitor"}, {"measurement": "inhibition of complex I", "setting": "complex I", "result": "reversible inhibitor"}]}]}
